Data as given in ChEMBL document CHEMBL1129962, “Nonsteroidal anti-inflammatory drugs as scaffolds for the design of 5-lipoxygenase inhibitors” (J Med Chem, 1997).

Legend:
[1] = target: T1, Polyunsaturated fatty acid 5-lipoxygenase (Homo sapiens, UniProt P09917); assay: Inhibitory activity against 5-lipoxygenase in Human whole blood (HWBL) stimulated with calcium ionophore (A23187) and LTB4 measured by enzyme immunoassay; type: functional, tissue-based
T1 sequence (P09917 whole entry): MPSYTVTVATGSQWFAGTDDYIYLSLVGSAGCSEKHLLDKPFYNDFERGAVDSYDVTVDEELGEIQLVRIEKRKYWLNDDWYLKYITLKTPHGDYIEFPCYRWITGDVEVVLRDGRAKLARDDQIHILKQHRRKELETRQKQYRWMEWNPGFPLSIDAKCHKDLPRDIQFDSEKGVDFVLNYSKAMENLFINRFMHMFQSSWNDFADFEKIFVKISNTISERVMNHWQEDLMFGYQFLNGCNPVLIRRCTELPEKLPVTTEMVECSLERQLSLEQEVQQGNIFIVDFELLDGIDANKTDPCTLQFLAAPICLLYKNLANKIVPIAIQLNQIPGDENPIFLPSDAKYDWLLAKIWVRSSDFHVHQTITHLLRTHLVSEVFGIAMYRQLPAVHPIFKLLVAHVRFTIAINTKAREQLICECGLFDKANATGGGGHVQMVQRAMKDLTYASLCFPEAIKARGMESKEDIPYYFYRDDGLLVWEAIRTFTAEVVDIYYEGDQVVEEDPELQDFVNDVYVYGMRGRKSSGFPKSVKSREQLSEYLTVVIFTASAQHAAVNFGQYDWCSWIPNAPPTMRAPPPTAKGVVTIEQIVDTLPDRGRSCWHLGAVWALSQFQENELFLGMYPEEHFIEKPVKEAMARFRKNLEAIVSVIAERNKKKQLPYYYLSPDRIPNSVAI

[2] = target: T2, Prostaglandin G/H synthase 2 (Homo sapiens) (UniProt P35354); assay: Inhibition activity against recombinant human Prostaglandin G/H synthase 2; parameters: concentration or dose not given beside the values; settings: concentration not given here
T2 sequence (whole entry): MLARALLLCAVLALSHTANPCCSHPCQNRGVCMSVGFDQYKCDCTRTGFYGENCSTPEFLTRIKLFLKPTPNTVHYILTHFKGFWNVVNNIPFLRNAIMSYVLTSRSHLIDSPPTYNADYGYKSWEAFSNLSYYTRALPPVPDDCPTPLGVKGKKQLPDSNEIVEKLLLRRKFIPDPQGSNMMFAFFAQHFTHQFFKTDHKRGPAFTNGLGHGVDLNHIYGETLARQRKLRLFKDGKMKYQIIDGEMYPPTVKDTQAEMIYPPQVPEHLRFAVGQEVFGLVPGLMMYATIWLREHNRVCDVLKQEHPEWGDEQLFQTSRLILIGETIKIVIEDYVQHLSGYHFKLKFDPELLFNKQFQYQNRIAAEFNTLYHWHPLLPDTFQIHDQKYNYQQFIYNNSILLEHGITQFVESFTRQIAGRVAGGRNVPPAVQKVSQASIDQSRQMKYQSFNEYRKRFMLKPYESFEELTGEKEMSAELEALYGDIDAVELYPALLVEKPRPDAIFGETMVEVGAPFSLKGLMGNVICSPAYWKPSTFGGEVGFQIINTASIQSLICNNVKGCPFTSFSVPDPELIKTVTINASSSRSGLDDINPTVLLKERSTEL

[3] = target: Prostaglandin G/H synthase 1 (Homo sapiens) (UniProt P23219); assay: Inhibition activity against recombinant human Prostaglandin G/H synthase 1; parameters: concentration or dose not given beside the values; settings: concentration not given here
[4] = target: T3, Polyunsaturated fatty acid 5-lipoxygenase (Rattus norvegicus, UniProt P12527); assay: Inhibitory activity against 5-lipoxygenase catalysis (5-LO) in sonicated rat basophilic leukemia cell lysate; type: functional
T3 sequence (P12527 whole entry): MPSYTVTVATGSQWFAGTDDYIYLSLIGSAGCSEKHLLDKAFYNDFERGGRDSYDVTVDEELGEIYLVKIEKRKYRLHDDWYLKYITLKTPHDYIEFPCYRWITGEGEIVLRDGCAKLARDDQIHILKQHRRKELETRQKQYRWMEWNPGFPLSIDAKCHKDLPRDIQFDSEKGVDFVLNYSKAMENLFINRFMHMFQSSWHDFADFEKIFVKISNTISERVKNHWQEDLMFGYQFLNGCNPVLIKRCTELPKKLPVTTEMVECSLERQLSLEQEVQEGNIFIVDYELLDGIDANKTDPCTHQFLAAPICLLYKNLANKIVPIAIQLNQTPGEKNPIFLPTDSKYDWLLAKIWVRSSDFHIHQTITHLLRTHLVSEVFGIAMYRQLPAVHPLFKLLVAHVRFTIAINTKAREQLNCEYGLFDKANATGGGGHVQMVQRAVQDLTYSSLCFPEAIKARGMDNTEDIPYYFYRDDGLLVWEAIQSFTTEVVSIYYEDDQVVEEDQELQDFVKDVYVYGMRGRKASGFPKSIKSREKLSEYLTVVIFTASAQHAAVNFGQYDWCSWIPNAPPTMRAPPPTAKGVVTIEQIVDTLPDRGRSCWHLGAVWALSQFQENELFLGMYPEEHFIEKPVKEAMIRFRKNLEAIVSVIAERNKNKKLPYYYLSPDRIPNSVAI

Prostaglandin G/H synthase 1 (Homo sapiens), sequence (P23219 whole entry): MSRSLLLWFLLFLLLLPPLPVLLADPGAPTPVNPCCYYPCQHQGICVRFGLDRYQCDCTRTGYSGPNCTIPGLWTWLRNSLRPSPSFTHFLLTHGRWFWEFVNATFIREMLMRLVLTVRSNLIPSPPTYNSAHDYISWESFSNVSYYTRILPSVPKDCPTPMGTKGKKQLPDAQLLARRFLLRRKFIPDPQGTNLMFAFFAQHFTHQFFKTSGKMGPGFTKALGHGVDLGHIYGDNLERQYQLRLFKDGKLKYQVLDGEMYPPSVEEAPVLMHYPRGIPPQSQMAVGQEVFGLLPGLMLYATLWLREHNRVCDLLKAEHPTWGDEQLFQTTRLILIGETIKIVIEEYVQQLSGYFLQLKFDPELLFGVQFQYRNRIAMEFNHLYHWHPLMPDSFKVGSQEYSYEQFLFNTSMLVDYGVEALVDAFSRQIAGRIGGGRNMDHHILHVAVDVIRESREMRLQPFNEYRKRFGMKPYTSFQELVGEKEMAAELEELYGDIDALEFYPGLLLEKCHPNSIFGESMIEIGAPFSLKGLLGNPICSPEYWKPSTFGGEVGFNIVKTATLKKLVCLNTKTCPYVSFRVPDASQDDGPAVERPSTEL

Structure (SMILES) | IC50 [1] | inhibition [2] | inhibition [3] | IC50 [4]
COc1ccc2c(c1)c(CCN(O)C(N)=O)c(C)n2C(=O)c1ccc(Cl)cc1 | 6100 nM | 48% | 9% | –
CC(c1cc2ccccc2s1)N(O)C(N)=O (stereo not drawn) | – | 0% | 0% | –
COc1ccc2cc([C@H](C)NC(=O)NO)ccc2c1 | 7100 nM | 2% | 0% | –
COc1ccc2c(c1)c(CNC(=O)N(C)O)c(C)n2C(=O)c1ccc(Cl)cc1 | 1000 nM | 88% | 64% | 200 nM
COc1ccc2cc([C@H](C)N(O)C(N)=O)ccc2c1 | 1600 nM | 0% | 0% | 400 nM
CC(C)Cc1ccc(C(C)NC(=O)NO)cc1 (stereo not drawn) | 23000 nM | 0% | 51% | –
CC(C)Cc1ccc(C(C)N(O)C(N)=O)cc1 (stereo not drawn) | 2500 nM | 0% | 37% | 600 nM
